Reference: US11654178B2, “Cyclic prosaposin peptides and uses thereof” (CHILDREN'S MEDICAL CENTER CORPORATION, priority 2014, dated 2023)
Where a SMILES comes first, the peptide text is derived from it.

Legend:
[1] = tested on: DF14 cells; test: DF14 PDX model of metastatic ovarian cancer, cyclic peptide for 10 days; assay type: in vivo, mice
Experimental: Based on these findings the efficacy of the cyclic peptide using the DF14 model was tested. In order to better study the effects of the peptide on the metastatic lesions mice were injected with 1×10^7 cells and allowed the luciferase signal to reach 9×10^9 RLU. The mice were treated with the cyclic peptide for only 10 days to ensure that there would be sufficient tumor tissue to analyze. […] The liver, spleen and omentum were analyzed of both the peptide and control treated mice by H&E, and IHC for Tsp-1, Gil and TUNEL. The metastatic lesions in the control treated mice were, on average, 2.3-fold larger than those in the peptide treated mice (FIG. 14E). […] Moreover, all of the lesions in the peptide treated mice contained a significant percentage of TUNEL positive cells, with an average of 40% TUNEL positive cells/lesion (FIGS. 14H and 14I). Conversely, control treated tumors contained, on average, only 1.4% TUNEL positive cells/lesion (FIGS. 14H and 14I).

[2] = tested on: Tsp-1; test: Tsp-1 stimulation in macrophages in mice; assay type: in vivo; conditions: FIG. 7, F4/80 macrophages
[3] = tested on: thrombospondin-1 (Tsp-1) in WI-38 lung fibroblasts; test: Stimulation of Tsp-1 in WI-38 lung fibroblasts (western blot); assay type: cell-based
Excerpt: Identification of both a 4- and 5-amino acid peptide derived from the saposin A domain of Psap that was able to inhibit both a tail vein model of Lewis Lung Carcinoma metastasis and in an adjuvant model of breast cancer metastasis when administered systemically was previously described (3). The therapeutic efficacy of peptides is often limited by their stability, or resistance to degradation by proteases. […] The stability of the 4-amino acid Psap peptide by incorporating d-amino acids at different moieties was investigated. Two peptides with d-amino acids incorporated, in combination, at the first (aspartate) and third (leucine) or the second (tryptophan) and fourth (proline) residues were synthesized. The activity of these peptides along with the native 1-amino acid peptide in vitro by measuring their ability to stimulate thrombospondin-1 (Tsp-1) in WI-38 lung fibroblasts was tested.
While the results of the peptide treatment of the PDX model of ovarian cancer were very promising it was postulated that the stability and activity of the peptide could be increased even more. The peptide derived from Psap was located in a region of the protein that contained a 13-amino acid loop between two helices that was stabilized by a disulfide bond (3). As such a 5-amino acid peptide that was cyclized via backbone (N—C) cyclization was synthesized (FIG. 14A, cyclic DWLPK (SEQ ID NO: 1)). […]

[4] = tested on: patient-derived ovarian cancer cells expressing luciferase; test: Mouse model of ovarian cancer, luciferase tumor burden and histology; assay type: in vivo, mice; conditions: 10 mg/kg for 10 days
Experimental: Next the cyclic peptide DWLPK (SEQ ID NO: 1) was tested in a mouse model of ovarian cancer. For the ovarian cancer mouse model, 1 million patient-derived ovarian cancer cells expressing luciferase were injected intraperitoneally into mice. The tumor burden was measured in vivo using luciferase. Treatment with the cyclic peptide began after 40 days and was administered for 10 days at 10 mg/kg. After 10 days of treatment, the mice were euthanized and the tumor was analyzed histologically.

[5] = tested on: DSS-induced model of Crohn's Disease; test: Dextran Sodium Sulfate (DSS)-induced model of Crohn's Disease; assay type: in vivo, mice
Experimental: A model of Crohn's disease was used to test the efficacy of the cyclic peptide DWLPK (SEQ ID NO: 1) for treating Crohn's disease. The cyclic peptide was tested in a Dextran Sodium Sulfate (DSS)-induced model of Crohn's Disease where DSS was given to the mice in their drinking water (3.5% weight:volume) for 7 days. In one group the mice were treated concurrently with the cyclic peptide and DSS, while the other group was treated with DSS alone.

[6] = mouse, in vivo
[7] = Stability in human plasma at 37° C., read out as Tsp-1 stimulation in WI-38 fibroblasts (ELISA); assay type: in vitro ADME; conditions: 24 hours
Experimental: The cyclic peptide DWLPK (SEQ ID NO: 1) was also tested for stability in human plasma compared to the linear peptide dWIP (SEQ ID NO: 5). Each peptide was incubated in human plasma at 37 degrees Celsius, for 2, 4, 8, or 24 hours.
Cyclization also has the effect of increasing the stability of peptides by forcing them into a conformation that is not recognized by most naturally occurring proteases (9, 10, 14-18). The stability of the cyclic peptide to the linear d-amino acid peptide in human plasma was compared.

[8] = tested on: thrombospondin-1 (Tsp-1); test: Tsp-1 activation in cultured cells by Western blot; assay type: cell-based; conditions: cyclic peptides, 4 micrograms/mL or 10 micrograms/mL, Western blot, FIG. 2
Experimental: Cells were cultured and contacted with 4 micrograms/mL or 10 micrograms/mL of each peptide and the level of thrombospondin-1 (Tsp-1) activation was measured by Western blot. Tsp-1 has been previously shown to be activated by Saposin A protein.

[9] = Activity of cyclic versus linear peptide (FIG. 18)
[10] = tested on: pancreatic cancer; test: Anti-tumor activity against pancreatic cancer (FIGS. 19 and 20); assay type: in vivo

## CC(C)C[C@@H]1NC(=O)[C@H](Cc2c[nH]c3ccccc23)NC(=O)[C@H](CC(=O)O)NC(=O)[C@H](CCCCN)NC(=O)[C@@H]2CCCN2C1=O [cyclic DWLPK] (cyclo(DWLPK))
[1]; 10 days of treatment, on average
  size of metastatic lesions in control treated mice relative to peptide treated mice: 2.3 fold
[1]; 10 days of treatment, control 1.4%
  TUNEL positive cells/lesion, average: 40%
[1]; after 10 days of treatment, start at 9×10^9 RLU, 10 mg/kg QD
  average luciferase signal after treatment: 4×10^8 RLU
[1]; all of the peptide treated tumors
  Tsp-1 staining of treated tumors (IHC): stained positive for Tsp-1
[2]
  Tsp-1 in macrophages in mice: stimulated Tsp-1 in macrophages
[3]
  Tsp-1 stimulation in vitro relative to d-amino acid linear peptide: 3 fold
[4]
  size of treated tumors relative to untreated tumors by histology: < 25%
[4]; histology
  Tsp-1 expression in treated tumors: expressed Tsp-1
[4]; starting after 40 days, FIG. 6
  luciferase output (tumor burden): went down
[5]; DSS 3.5% in drinking water 7 days, peptide concurrently, FIG. 9
  inflammation (MPO enzymatic activity): significantly reduced inflammation
[5]; FIG. 10
  body weight loss versus DSS only: lost less weight
[5]; FIG. 11
  Tsp-1 stimulation in intestine: stimulate Tsp-1
  macrophage infiltration: inhibit macrophage infiltration
[6]
  toxicity to the liver or spleen by histology: did not cause any toxicity
[7]; 37 degrees Celsius, FIG. 3
  ability to activate Tsp-1 after incubation in human plasma: retained the ability to activate Tsp-1
[7]; 37° C., ELISA
  Tsp-1 stimulating activity retained after incubation in human plasma: greater than 70%
[8]
  effectiveness at increasing the level of Tsp-1: most effective
[9]
  activity relative to the linear peptide: approximately 2 fold
[10]; FIG. 19
  anti-tumor activity against pancreatic cancer: significant anti-tumor activity
[10]; FIG. 20
  effect on metastasis of pancreatic cancer: inhibits metastasis
  effect on metastatic pancreatic cancer: regresses metastatic pancreatic cancer
